Experiment: Time-Resolved Fluorescence Resonance Energy Transfer (TR-FRET) Assay: The inhibition of the Mcl-1/Bim interaction was measured using a time-resolved fluorescence resonance energy transfer (TR-FRET) assay. The recombinant human Mcl-1 (C-terminally 6ÃHis tagged Mcl-1 containing residues 171-327) was generated at Amgen Inc (Thousand Oaks, Calif.). A biotinylated peptide derived from human Bim …
Description: Time-Resolved Fluorescence Resonance Energy Transfer (TR-FRET) Assay: The inhibition of the Mcl-1/Bim interaction was measured using a time-resolved fluorescence resonance energy transfer (TR-FRET) assay. […] A biotinylated peptide derived from human Bim (residues 51-76) was purchased from CPC Scientific (San Jose, Calif.). The TR-FRET assay was conducted in a 384-well white OptiPlate (PerkinElmer, Waltham, Mass.) in a total volume of 40 uL. […] The reaction plates were further incubated overnight and then were read on an EnvisionÂ multimode reader (PerkinElmer). […] The IC50 values of test compounds were determined from duplicate data by analyzing competition curves using a four-parameter sigmoidal model in GraphPad Prism.

Row | Structure (SMILES) | IC50
1 | CO[C@@]1(CN2CCN3CCC(F)(F)C[C@@H]3C2)/C=C\C[C@H](C)[C@@H](C)S(=O)(=O)NC(=O)c2ccc3c(c2)N(C[C@@H]2CC[C@H]21)C[C@@]1(CCCc2cc(Cl)ccc21)CO3 | 0.494 nM
2 | CCCCN1CCN(C[C@]2(OC)/C=C/C[C@H](C)[C@@H](C)S(=O)(=O)NC(=O)c3ccc4c(c3)N(C[C@@H]3CC[C@H]32)C[C@@]2(CCCc3cc(Cl)ccc32)CO4)CC1 | 0.225 nM
3 | C[C@@H]1[C@@H](C)C/C=C\[C@](O)(CN2CCN3CCCC[C@@H]3C2)[C@@H]2CC[C@H]2CN2C[C@@]3(CCCc4cc(Cl)ccc43)COc3ccc(cc32)C(=O)NS1(=O)=O | 0.097 nM
